The values that follow come from ChEMBL document CHEMBL3588797, “Tetrazole activity against Candida albicans. The role of KEX2 mutations in the sensitivity to (±)-1-[5-(2-chlorophenyl)-2H-tetrazol-2-yl]propan-2-yl acetate” (Bioorg Med Chem Lett, 2015).

Holding throughout (format): functional
Test [1] relates to Candida albicans. Put plainly: Antifungal activity against Candida albicans 90028 ATCC assessed as inhibition of growth at 16 ug/ml after 48 hrs relative to control.
Test [2] concerns Candida albicans. The experiment in a line: Antifungal activity against Candida albicans 90028 ATCC assessed as inhibition of growth at 8 ug/ml after 48 hrs relative to control.
Test [3] has as its system Candida albicans. The experiment in a line: Antifungal activity against Candida albicans 90028 ATCC assessed as inhibition of growth at 4 ug/ml after 48 hrs relative to control.
Test [4] relates to Candida albicans. The experiment in a line: Antifungal activity against Candida albicans 90028 ATCC assessed as inhibition of growth at 2 ug/ml after 48 hrs relative to control.
Test [5] has as its system Candida albicans. Put plainly: Antifungal activity against Candida albicans 90028 ATCC assessed as inhibition of growth at 1 ug/ml after 48 hrs relative to control.
For test [6], the system named is Candida albicans. Put plainly: Antifungal activity against Candida albicans 90028 ATCC assessed as inhibition of growth at 0.5 ug/ml after 48 hrs relative to control.
For test [7], the system named is Candida albicans. The experiment in a line: Antifungal activity against Candida albicans 90028 ATCC assessed as inhibition of growth at 0.25 ug/ml after 48 hrs relative to control.
Test [8] concerns Candida albicans. Put plainly: Antifungal activity against Candida albicans 90028 ATCC assessed as inhibition of growth at 0.12 ug/ml after 48 hrs relative to control.
Test [9] has as its system Candida albicans. The experiment in a line: Antifungal activity against Candida albicans 90028 ATCC assessed as inhibition of growth at 0.06 ug/ml after 48 hrs relative to control.
For test [10], the system named is Candida albicans. The experiment in a line: Antifungal activity against Candida albicans 90028 ATCC assessed as inhibition of growth at 0.03 ug/ml after 48 hrs relative to control.
Test [11] has as its system Candida albicans. Put plainly: Antifungal activity against Candida albicans 90028 ATCC assessed as decrease in turbidity after 48 hrs relative to control.

≈ marks a conversion by molar mass, not a printed value.

For `Cc1ccc(-c2nnn(CCC(C)O)n2)cc1` (racemic), the inhibition (usually the percentage by which the read-out fell short of the control) at 16 µg/mL in the test on Candida albicans [1] was found to be 98.9%. The inhibition at 8 µg/mL in the test on Candida albicans [2] is 98.9%. Moreover, the inhibition at 4 µg/mL in the test with Candida albicans [3] is 99%. The inhibition at 2 µg/mL with Candida albicans [4] was 98.9%. The inhibition at 1 µg/mL in the test with Candida albicans [5] was 98.9%. In addition, the inhibition at 0.5 µg/mL in the test with Candida albicans [6] amounted to 98.9%. In the test with Candida albicans [7], the inhibition at 0.25 µg/mL was 98.9%. Besides, the inhibition at 0.12 µg/mL in the test with Candida albicans [8] was found to be 98.9%. In addition, the inhibition at 0.06 µg/mL in the test with Candida albicans [9] was determined as 99%. Moreover, the inhibition at 0.03 µg/mL in the test on Candida albicans [10] was 98.9%. The MIC (as a rule, the smallest concentration in the dilution series that meets the test's criterion for growth inhibition) in the test on Candida albicans [11] amounted to 4 µg/mL (≈ 17.2 µM).

`CC(O)CCn1nnc(-c2ccccc2Cl)n1` (racemic): the inhibition at 16 µg/mL with Candida albicans [1] is 99%. In addition, the inhibition at 8 µg/mL with Candida albicans [2] is 99%. In addition, the inhibition at 4 µg/mL in the test on Candida albicans [3] turned out to be 99%. Further, the inhibition at 2 µg/mL in the test on Candida albicans [4] was found to be 98.9%. Further, in the test on Candida albicans [5], the inhibition at 1 µg/mL came to 99%. The inhibition at 0.5 µg/mL in the test with Candida albicans [6] stood at 99%. Also, the inhibition at 0.25 µg/mL in the test with Candida albicans [7] is 98.9%. In addition, in the test on Candida albicans [8], the inhibition at 0.12 µg/mL amounted to 99%. In addition, in the test with Candida albicans [9], the inhibition at 0.06 µg/mL was 98.9%. The inhibition at 0.03 µg/mL in the test on Candida albicans [10] turned out to be 98.8%. In addition, in the test with Candida albicans [11], the MIC worked out at 8 µg/mL (≈ 31.7 µM).

As for `CC(O)Cn1nnc(-c2ccccc2)n1` (racemic), in the test with Candida albicans [1], the inhibition at 16 µg/mL was 98.8%. In addition, the inhibition at 8 µg/mL with Candida albicans [2] was 98.9%. For the same molecule, in the test with Candida albicans [3], the inhibition at 4 µg/mL was 98.9%. Moreover, the inhibition at 2 µg/mL in the test on Candida albicans [4] was found to be 98.8%. For the same molecule, the inhibition at 1 µg/mL in the test with Candida albicans [5] turned out to be 98.8%. In addition, the inhibition at 0.5 µg/mL in the test on Candida albicans [6] came out at 98.7%. Moreover, the inhibition at 0.25 µg/mL in the test with Candida albicans [7] stood at 98.7%. Moreover, the inhibition at 0.12 µg/mL in the test on Candida albicans [8] is 98.7%. Further, the inhibition at 0.06 µg/mL in the test with Candida albicans [9] was determined as 98.8%. In the test with Candida albicans [10], the inhibition at 0.03 µg/mL came out at 98.8%.

Take `Cc1ccc(-c2nnn(CC(C)O)n2)cc1` (racemic): the inhibition at 16 µg/mL in the test on Candida albicans [1] came to 98.8%. For the same molecule, the inhibition at 8 µg/mL in the test on Candida albicans [2] stood at 98.9%. In the test on Candida albicans [3], the inhibition at 4 µg/mL was determined as 98.9%. In addition, the inhibition at 2 µg/mL with Candida albicans [4] was found to be 98.9%. For the same molecule, in the test with Candida albicans [5], the inhibition at 1 µg/mL was 98.8%. In addition, the inhibition at 0.5 µg/mL in the test with Candida albicans [6] is 98.9%. Further, the inhibition at 0.25 µg/mL in the test on Candida albicans [7] came to 99%. Also, the inhibition at 0.12 µg/mL with Candida albicans [8] turned out to be 98.9%. In the test on Candida albicans [9], the inhibition at 0.06 µg/mL came to 99%. In the test with Candida albicans [10], the inhibition at 0.03 µg/mL was 98.9%.

Regarding `CC(O)Cn1nnc(-c2ccccc2Cl)n1` (racemic), the inhibition at 16 µg/mL with Candida albicans [1] was 98.9%. Moreover, the inhibition at 8 µg/mL in the test with Candida albicans [2] worked out at 99%. For the same molecule, the inhibition at 4 µg/mL with Candida albicans [3] is 99%. Besides, the inhibition at 2 µg/mL with Candida albicans [4] worked out at 98.9%. Besides, the inhibition at 1 µg/mL with Candida albicans [5] was found to be 99%. In the test with Candida albicans [6], the inhibition at 0.5 µg/mL was 99.1%. For the same molecule, the inhibition at 0.25 µg/mL with Candida albicans [7] was determined as 99%. Moreover, the inhibition at 0.12 µg/mL in the test with Candida albicans [8] turned out to be 99%. In addition, in the test with Candida albicans [9], the inhibition at 0.06 µg/mL stood at 99%. The inhibition at 0.03 µg/mL with Candida albicans [10] turned out to be 98.9%. For the same molecule, the MIC in the test on Candida albicans [11] was determined as 0.125 µg/mL (≈ 0.524 µM).

On to `C[C@@H]1[C@H](O)[C@@H](C)/C=C/C=C/C=C/C=C/C=C/C=C/C=C/[C@H](O[C@@H]2O[C@H](C)[C@@H](O)[C@H](N)[C@@H]2O)C[C@@H]2O[C@](O)(C[C@@H](O)C[C@@H](O)[C@H](O)CC[C@@H](O)C[C@@H](O)CC(=O)O[C@H]1C)C[C@H](O)[C@H]2C(=O)O` [AMPHOTERICIN B], for which, in the test with Candida albicans [6], the inhibition at 0.5 µg/mL was determined as 100%.
